Test results as given in patent publication US20260263485A1, “AMINOSTEROL COMPOUNDS, AMINOSTEROL-CYCLODEXTRIN FORMULATIONS, AND METHODS OF USING THE SAME” (Enterin, Inc., priority 2022, published 2026).
Blank lines part the entries; values can stand above or below the compound they belong to.

What was measured:
[1] = Plasma pharmacokinetics of ENT-03S cyclodextrin formulation after subcutaneous injection; assay type: in vivo, rat; conditions: Sprague-Dawley, rat; 20% beta-cyclodextrin formulation; SC Dose 10 mg/kg; male SD rats; plasma; mean; read-out: Tmax Mean
Description: In this example, ENT-03S was formulated with unmodified beta-cyclodextrin at a concentration of 25 mg/ml ENT-03, and 20% beta-cyclodextrin, pH 7.5, buffered with phosphate.
Male Sprague-Dawley rats were administered the ENT-03-cyclodextrin formulation subcutaneous at a dose of 10 mg/kg. Blood samples were drawn from the tail vein at various times, the concentrations of ENT-03 determined, and PK parameters determined.

PTP1B = conditions: in vitro, bank of commercially available phosphatases; cited from earlier work
[2] = cited from earlier work
[3] = Identification of metabolites of ENT-03S in rat plasma and urine samples (UPLC-MS/MS); assay type: in vivo
Description: An equal number of rat urine (50 μL) were taken from different animals at various time points following administration of ENT-03S. For plasma samples, the Hamilton pooling method was used.
Study design: An equal number of rat urine (50 μL) samples were taken from different animals at various time points from study No.: PH-DMPK-ETR-21-001 following administration of ENT-03S. For plasma samples, the Hamilton pooling method was used.
The samples were then analysed using UPLC-MS/MS.
Compound dependent parameters were optimized by ENT-03S.

[4] = Identification of metabolites of ENT-03S in rat bile samples (UPLC-MS/MS); conditions: bile duct cannulated male SD rats, 10 mg/kg ENT-03S SC; for Metabolite peak area percentages Rat Bile: pooled bile 0-24 h, relative XIC peak area; for Metabolite peak area Rat Bile: pooled bile, XIC peak area
Description: An equal volume of rat bile samples (50 μL) were taken from different animals at different time points following administration of ENT-03S. 50 μL of matrix was mixed with 200 μL of methanol (containing 0.1% formic acid), vortexed for 100 seconds and then centrifuged at 16,000 g for 10 minutes at 4° C. to precipitate proteins. 100 μL of the supernatant was transferred to a new tube and the supernatant diluted with 100 μt, pure water, mixed well and analyzed using UPLC-MS/MS.
The peak area percentages of parent drug and each metabolite were determined by semi-quantitative estimation using the extracted ion chromatogram peak areas of all detected drug-related material in the sample. Metabolites with percentage of peak area>10% are proposed as major metabolites of ENT-03S.
Bile samples were obtained from male rats at various time points following a 10 mg/kg dose of ENT-03S via subcutaneous administration in bile dicut cannulated male SD rats as detailed in Table 10. The samples were transferred on dry ice and stored at −80° C. prior to use
Study design: An equal volume of rat bile samples (50 μL) were taken from different animals at different time points following administration of ENT-03S in study No.: PII-DMPK-ETR-21-001. 50 μL of matrix was mixed with 200 μL of methanol (containing 0.1% formic acid), vortexed for 100 seconds and then centrifuged at 16,000 g for 10 minutes at 4° C. to precipitate proteins. 100 μL of the supernatant was transferred to a new tube and the supernatant diluted with 100 μL pure water, mixed well and analyzed using UPLC-MS/MS.
Sample preparation: For bile samples, an equal volume of samples (50 μL) are taken from different animals at various time points after the administration of each group of samples, and the same group of samples are mixed thoroughly.
Data Analysis: UPLC-MS/MS was used for sample analysis, and was conducted using a DionexUltiMate 3000/Vanquish UHPLC system. For mass spectrometry (MS), all analysis was carried out with a Q-Exactive instrument (Thermo Fisher). A full MS scan was used to trigger the data dependent acquisition (DDA) of MS/MS scan spectra. Compound dependent parameters were optimized by ENT-03S. DDA settings were used to trigger acquisition of MS^2 spectra for ions whose intensity is in top 5 of all, with exclusion of impurity ions (m/z 149.02332, m/z 279.15909, m/z 391.28429 and m/z 445.12003), after 3 occurrences for 10 s. Dynamic exclusion settings: automatic exclusion of the ions which have been taken.
Data Analysis: The analysis was carried out using a thermo Fisher Scientific Q Exactive instrument. Full MS scan was used to trigger the data dependent acquisition (DDA) of MS/MS scan spectra. Compound dependent parameters were optimized by ENT-03S. DDA settings were used to trigger acquisition of MS^2 spectra for ions whose intensity was in the top 5 of all, with exclusion of ions (m/z 149.02332, m/z 279 1 5909, m/z 391.28429 and m/z 445 12003), after 3 occurrences for 10 s. Data was acquired and processed using Xcalibur v4.1 software (Thermo Fisher Scientific) and Compound Discoverer 3.1 (Thermo Fisher Scientific) and Excel (Microsoft 2016).

- Tmax [1]: 2 h
SMILES: CC(CCC[C@@H](C)[C@H]1CCC2C3C(CC[C@@]21C)[C@@]1(C)CC[C@H](NCCCNCCCCNCCCN)C[C@@H]1C[C@H]3O)C(=O)O (single isomer, unassigned) [ENT-03]
- inhibition of PTP1B relative to the other phosphatases assayed (PTP1B): most potently inhibited
- hepatic steatosis ([2]; in vivo): reduces hepatic steatosis
- insulin sensitivity ([2]; in vivo): acutely increases insulin sensitivity
- food intake and body weight ([2]; peripheral and central administration to lean rodents): prolonged reduction in food intake and body weight

SMILES: C[C@H](CCC(=O)O)[C@H]1CCC2C3C(CC[C@@]21C)[C@@]1(C)CC[C@H](NCCCNCCCCNCCCN)C[C@@H]1C[C@H]3O (single isomer, unassigned) [ENT-17]
- Metabolite peak area percentages Rat Plasma Male ([3]; pooled male SD rat plasma 0.25-24 h after 10 mg/kg ENT-03S SC, relative XIC peak area): 0.55%
- Metabolite peak area Rat Plasma Male ([3]; pooled male SD rat plasma after 10 mg/kg ENT-03S SC, XIC peak area): 3.62E+06
- Metabolite peak area percentages Rat Urine Male ([3]; pooled male SD rat urine 0-24 h after 10 mg/kg ENT-03S SC, relative XIC peak area, “—”: not observed): 7.56%
- Metabolite peak area Rat Urine Male ([3]; pooled male SD rat urine after 10 mg/kg ENT-03S SC, XIC peak area, “—”: not observed): 1.70E+05

SMILES: C[C@H](CCC[C@H](C)C(=O)O)[C@H]1CCC2C3C(CC[C@@]21C)[C@@]1(C)CC[C@H](NCCCNCCCCNCCC(=O)O)C[C@@H]1C[C@H]3O (stereo partly drawn) [ENT-25S]
- Metabolite peak area percentages Rat Bile [4]: 9.52%
- Metabolite peak area Rat Bile [4]: 1.17E+07

SMILES: C[C@H](CCC(=O)NCCS(=O)(=O)O)[C@H]1CCC2C3C(CC[C@@]21C)[C@@]1(C)CC[C@H](NCCC(=O)O)C[C@@H]1C[C@H]3O (some centres unmarked) [M3-RB]
- Metabolite peak area percentages Rat Bile [4]: 2.27%
- Metabolite peak area Rat Bile [4]: 2.80E+06

SMILES: C[C@H](CCC[C@H](C)C(=O)O)[C@H]1CCC2C3C(CC[C@@]21C)[C@@]1(C)CC[C@H](NCCCNCCCC(=O)O)C[C@@H]1C[C@H]3O (some centres unmarked) [M10-PU/M14-RB]
- Metabolite peak area percentages Rat Bile [4]: 3.23%
- Metabolite peak area Rat Bile [4]: 3.98E+06

- Metabolite peak area percentages Rat Bile [4]: 0.69%
- Metabolite peak area Rat Bile [4]: 8.45E+05
SMILES: C[C@H](C[C@H](C)C(=O)O)[C@H]1CCC2C3C(CC[C@@]21C)[C@@]1(C)CC[C@H](NCCC(=O)O)C[C@@H]1C[C@H]3O (some centres unmarked) [M16-RB]
